Measurements published in ChEMBL document CHEMBL3727368, “Thienopyrimidine inhibitors of atypical protein kinase C” (2013).

Assays:
[1] = molecular target: T1, Protein kinase C iota type (Homo sapiens, UniProt P41743); test: Inhibition of recombinant full-length human PKC-iota expressed in Sf21 cells using FAM-PKCs pseudopeptide derived peptide substrate and 150 uM ATP by fluorescence polarization based IMAP assay
T1 sequence (P41743 whole entry): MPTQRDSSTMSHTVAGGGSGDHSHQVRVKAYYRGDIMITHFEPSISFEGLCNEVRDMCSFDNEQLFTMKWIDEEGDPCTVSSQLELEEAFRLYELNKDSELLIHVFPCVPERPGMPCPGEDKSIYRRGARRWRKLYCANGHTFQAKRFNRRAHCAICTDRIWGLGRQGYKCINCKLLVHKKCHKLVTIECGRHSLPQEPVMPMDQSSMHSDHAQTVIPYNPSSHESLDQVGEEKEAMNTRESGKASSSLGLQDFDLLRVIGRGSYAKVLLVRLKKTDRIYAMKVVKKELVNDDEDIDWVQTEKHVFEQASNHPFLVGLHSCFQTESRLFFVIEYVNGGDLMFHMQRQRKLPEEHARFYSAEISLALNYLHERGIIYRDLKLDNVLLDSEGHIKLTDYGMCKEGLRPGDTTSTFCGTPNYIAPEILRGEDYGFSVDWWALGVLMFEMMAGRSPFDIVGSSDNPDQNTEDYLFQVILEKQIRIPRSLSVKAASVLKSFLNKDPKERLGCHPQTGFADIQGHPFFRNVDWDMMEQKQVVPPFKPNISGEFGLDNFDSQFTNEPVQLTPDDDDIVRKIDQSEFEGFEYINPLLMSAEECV

[2] = molecular target: T1, Protein kinase C iota type; test: Inhibition of recombinant human PKC-iota kinase domain expressed in Sf21 cells using FAM-PKCs pseudopeptide derived peptide substrate and 25 uM ATP by fluorescence polarization based IMAP assay

Compound | IC50 [1] | IC50 [2]
N[C@H](CNc1nc(-c2ccncc2)nc2c(Nc3ccon3)csc12)Cc1ccccc1 | < 100 nM | 
N[C@H](CNc1nc(-c2ccncc2)nc2c(-c3ccccc3Cl)c(C(F)(F)F)sc12)Cc1ccccc1 | ≥ 10000 nM | 
c1cc(-c2nc(N[C@@H]3CCNC3)c3scc(-c4ccn[nH]4)c3n2)ccn1 | < 100 nM | 
CC(O)CC#Cc1csc2c(NC[C@@H](N)Cc3ccccc3)nc(-c3ccncc3)nc12 (stereo partly drawn) | < 100 nM | 
N[C@H](CNc1nc(-c2ccncc2)nc2c(Nc3ccccn3)csc12)Cc1ccccc1 | < 100 nM | 
Cc1sc2c(NC[C@@H](N)Cc3ccccc3)nc(-c3ccncc3)nc2c1Br | < 100 nM | 
CC(O)C#Cc1csc2c(NC[C@@H](N)Cc3ccccc3)nc(-c3ccncc3)nc12 (stereo partly drawn) | < 100 nM | 
CCC[C@@H](O)[C@H](O)C#Cc1csc2c(NC[C@@H](N)Cc3ccccc3)nc(-c3ccncc3)nc12 | ≥ 1000 nM | 
Cc1csc2nc(-c3ccncc3)nc(N3CCNCC3)c12 |  | < 100 nM
N#Cc1csc2c(NC[C@@H](N)Cc3ccccc3)nc(-c3ccncc3)nc12 | < 100 nM | 
N[C@H](CNc1nc(-c2ccncc2)nc2c(-c3ccn[nH]3)csc12)Cc1ccccc1 | < 100 nM | 
N[C@H](CNc1nc(-c2ccncc2)nc2c(/C=C/C3CC3)csc12)Cc1ccccc1 | < 100 nM | 
N[C@H](CNc1nc(-c2ccncc2)nc2c(C3CC3)csc12)Cc1ccccc1 | < 100 nM | 
Cc1cc(-c2csc3c(NC[C@@H](N)Cc4ccccc4)nc(-c4ccncc4)nc23)n[nH]1 | < 100 nM | 
Cc1sc2c(NC[C@@H](N)Cc3ccccc3)nc(-c3ccncc3)nc2c1-c1ccn[nH]1 | < 100 nM | 
C[C@@H](F)C#Cc1csc2c(NC[C@@H](N)Cc3ccccc3)nc(-c3ccncc3)nc12 | < 100 nM | 
Brc1csc2c(N[C@@H]3CCNC3)nc(-c3ccncc3)nc12 | < 100 nM | 
N[C@H](CNc1nc(-c2ccncc2)nc2c(/C=C/C(=O)O)csc12)Cc1ccccc1 | ≤ 1000 nM | 
N[C@H](CNc1nc(-c2ccncc2)nc2c(Br)csc12)Cc1ccccc1 | < 100 nM | 
N[C@H](CNc1nc(-c2ccncc2)nc2c(-c3cn[nH]n3)csc12)Cc1ccccc1 | < 100 nM | 
COCC#Cc1csc2c(NC[C@@H](N)Cc3ccccc3)nc(-c3ccncc3)nc12 | < 100 nM | 
N[C@H](CNc1nc(-c2ccncc2)nc2c(C#CC3(O)CC3)csc12)Cc1ccccc1 | < 100 nM | 
N[C@H](CNc1nc(-c2ccncc2F)nc2c(-c3cc[nH]n3)csc12)Cc1ccccc1 | < 100 nM | 

More lines, now with the values ahead:

IC50 [1] | IC50 [2] | Compound
< 100 nM |  | N[C@H](CNc1nc(-c2ccncc2)nc2c(C#CC3(O)CCCC3)csc12)Cc1ccccc1
≥ 1000 nM |  | CC(C)S(=O)(=O)c1cccc(Nc2cc(-c3nc(N[C@@H]4CCNC4)c4sccc4n3)ccn2)c1
< 100 nM |  | N[C@H](CNc1nc(-c2ccncc2)nc2sc3c(c12)CCCC3)Cc1ccccc1O
≥ 10000 nM |  | F[C@H]1NCC[C@H]1Nc1nc(-c2ccncc2)nc2ccsc12
< 100 nM |  | CNC(=O)c1csc2c(NC[C@@H](N)Cc3ccccc3)nc(-c3ccncc3)nc12
< 100 nM |  | C[C@H](O)C#Cc1csc2c(N[C@@H]3CCNC3)nc(-c3ccncc3)nc12
< 100 nM |  | N[C@H](CNc1nc(-c2ccncc2)nc2c(C#CCCO)csc12)Cc1ccccc1
< 100 nM |  | CC[C@H](O)C#Cc1csc2c(NC[C@@H](N)Cc3ccccc3)nc(-c3ccncc3)nc12
< 100 nM |  | C#Cc1csc2c(NC[C@@H](N)Cc3ccccc3)nc(-c3ccncc3)nc12
< 100 nM |  | N[C@H](CNc1nc(-c2ccncc2)nc2c(C#CC3(O)CCC3)csc12)Cc1ccccc1
< 100 nM |  | CC#Cc1csc2c(NC[C@@H](N)Cc3ccccc3)nc(-c3ccncc3)nc12
< 100 nM |  | C[C@H](O)C#Cc1csc2c(NC[C@@H](N)Cc3ccccc3)nc(-c3ccncc3)nc12
< 100 nM |  | C/C=C\c1csc2c(NC[C@@H](N)Cc3ccccc3)nc(-c3ccncc3)nc12
 | < 100 nM | Cc1csc2c(NC[C@@H](N)Cc3ccccc3)nc(-c3ccncc3)nc12
≥ 10000 nM |  | N[C@H](CNc1nc(-c2ccncc2)nc2c(NC(=O)C3CCCC3)csc12)Cc1ccccc1
< 100 nM |  | N[C@H](CNc1nc(-c2ccncc2)nc2c(C#CCO)csc12)Cc1ccccc1
< 100 nM |  | C[C@@H](O)C#Cc1csc2c(NC[C@@H](N)Cc3ccccc3)nc(-c3ccncc3)nc12
< 100 nM |  | N[C@H](CNc1nc(-c2ccncc2F)nc2c(C#CCO)csc12)Cc1ccccc1
< 100 nM |  | Cc1sc2c(NC[C@@H](N)Cc3ccccc3)nc(-c3ccncc3)nc2c1C#CC(C)(C)O
< 100 nM |  | C=Cc1csc2c(NC[C@@H](N)Cc3ccccc3)nc(-c3ccncc3)nc12
< 100 nM |  | CC(C)(O)C#Cc1csc2c(NC[C@@H](N)Cc3ccccc3)nc(-c3ccncc3)nc12
< 100 nM |  | N[C@H](CNc1nc(-c2ccncc2)nc2c(C#Cc3cc[nH]n3)csc12)Cc1ccccc1
 | ≥ 10000 nM | Cc1ccc(CN2CCN(c3nc(-c4ccncc4)nc4sc5c(c34)CCCC5)CC2)cc1
< 100 nM |  | CCc1cc(-c2csc3c(NC[C@@H](N)Cc4ccccc4)nc(-c4ccncc4)nc23)[nH]n1
< 100 nM |  | N[C@H](CNc1nc(-c2ccncc2)nc2c(C#CCF)csc12)Cc1ccccc1
≥ 10000 nM |  | CC(C)(C)OC(=O)N1CCc2c(sc3nc(-c4ccncc4)nc(NCCN)c23)C1
 | < 100 nM | C[C@H](N)CNc1nc(-c2ccncc2)nc2sc3c(c12)CCCC3
< 100 nM |  | N[C@H](CNc1nc(-c2ccncc2)nc2c(Cl)csc12)Cc1ccccc1
< 100 nM |  | N[C@H](CNc1nc(-c2ccncc2F)nc2c(Br)csc12)Cc1ccccc1
< 100 nM |  | N[C@H](CNc1nc(-c2ccncc2)nc2c(C#CC3CC3)csc12)Cc1ccccc1
